Experimental data published in ChEMBL document CHEMBL5143695, “Benzobis(imidazole) derivatives as STAT3 signal inhibitors with antitumor activity” (Bioorg Med Chem, 2022).
Calls of active or inactive are those of the source. The rule behind the calls is not given here.

Columns and labels:
ECa-109 cell line [1] = assay: Antitumor activity against human EC109 cells assessed as reduction in cell viability incubated for 72 hrs by MTT assay; assay type: functional, cell-based; details: ECa-109, 72 h
ECa-109 cell line [2] = assay: Induction of apoptosis in human EC109 cells assessed as early apoptotic cells at 5 uM incubated for 48 hrs by Annexin V/PI staining based flow cytometry method (reference value: 1.36%); assay type: functional
ECa-109 cell line [3] = assay: Induction of apoptosis in human EC109 cells assessed as late apoptotic cells at 10 uM incubated for 48 hrs by Annexin V/PI staining based flow cytometry method (reference value: 6.17%); assay type: functional
[4] = Cytotoxicity against HEK-Blue IL-6 cells; assay type: toxicity, cell-based; details: human
ECa-109 cell line [5] = assay: Induction of apoptosis in human EC109 cells assessed as viable cells at 5 uM incubated for 48 hrs by Annexin V/PI staining based flow cytometry method (reference value: 91.7%); assay type: functional; details: read-out: Activity
HepG2 [6] = assay: Induction of apoptosis in human HepG2 cells assessed as early apoptotic cells at 10 uM incubated for 48 hrs by Annexin V/PI staining based flow cytometry method (reference value: 3.31%); assay type: functional
ECa-109 cell line [7] = assay: Induction of apoptosis in human EC109 cells assessed as downregulation of MCL-1 protein expression by Western blotting analysis; assay type: functional, cell-based; details: dose 2.5-20 µM, DDE = dose-dependent effect
HepG2 [8] = assay: Induction of apoptosis in human HepG2 cells assessed as downregulation of MCL-1 protein expression by Western blotting analysis; assay type: functional, cell-based; details: dose 2.5-20 µM, DDE = dose-dependent effect
ECa-109 cell line [9] = assay: Induction of apoptosis in human EC109 cells assessed as early apoptotic cells at 20 uM incubated for 48 hrs by Annexin V/PI staining based flow cytometry method (reference value: 1.36%); assay type: functional
HepG2 [10] = assay: Induction of apoptosis in human HepG2 cells assessed as viable cells at 10 uM incubated for 48 hrs by Annexin V/PI staining based flow cytometry method (reference value: 92.5%); assay type: functional; details: read-out: Activity
ECa-109 cell line [11] = assay: Induction of apoptosis in human EC109 cells assessed as late apoptotic cells at 5 uM incubated for 48 hrs by Annexin V/PI staining based flow cytometry method (reference value: 6.17%); assay type: functional
HepG2 [12] = assay: Induction of apoptosis in human HepG2 cells assessed as late apoptotic cells at 5 uM incubated for 48 hrs by Annexin V/PI staining based flow cytometry method (reference value: 3.64%); assay type: functional
HepG2 [13] = assay: Induction of cell cycle arrest in human HepG2 cells assessed as downregulation of cyclin D1 protein expression by Western blotting analysis; assay type: functional, cell-based; details: dose 2.5-20 µM, DDE = dose-dependent effect
HepG2 [14] = assay: Induction of apoptosis in human HepG2 cells assessed as necrotic cells at 5 uM incubated for 48 hrs by Annexin V/PI staining based flow cytometry method (reference value: 0.57%); assay type: functional
[15] = Toxicity in BALB/c athymic nude mouse xenografted with human HepG2 cells assessed as effect on body weight at 20 to 40 mg/kg, ip administered daily for 24 days; assay type: organism-based; details: in vivo, 576 h, dose 20-40 mg/kg, time 24 day
[16] = target: Signal transducer and activator of transcription 3 (Homo sapiens) (UniProt P40763); assay: Inhibition of STAT3 phosphorylation at Y705 residue in human EC109 cells measured after 16 hrs by Western blotting analysis; assay type: cell-based; details: dose 2.5-20 µM, DDE = dose-dependent effect
Chain of Signal transducer and activator of transcription 3 (Homo sapiens) (P40763 whole entry): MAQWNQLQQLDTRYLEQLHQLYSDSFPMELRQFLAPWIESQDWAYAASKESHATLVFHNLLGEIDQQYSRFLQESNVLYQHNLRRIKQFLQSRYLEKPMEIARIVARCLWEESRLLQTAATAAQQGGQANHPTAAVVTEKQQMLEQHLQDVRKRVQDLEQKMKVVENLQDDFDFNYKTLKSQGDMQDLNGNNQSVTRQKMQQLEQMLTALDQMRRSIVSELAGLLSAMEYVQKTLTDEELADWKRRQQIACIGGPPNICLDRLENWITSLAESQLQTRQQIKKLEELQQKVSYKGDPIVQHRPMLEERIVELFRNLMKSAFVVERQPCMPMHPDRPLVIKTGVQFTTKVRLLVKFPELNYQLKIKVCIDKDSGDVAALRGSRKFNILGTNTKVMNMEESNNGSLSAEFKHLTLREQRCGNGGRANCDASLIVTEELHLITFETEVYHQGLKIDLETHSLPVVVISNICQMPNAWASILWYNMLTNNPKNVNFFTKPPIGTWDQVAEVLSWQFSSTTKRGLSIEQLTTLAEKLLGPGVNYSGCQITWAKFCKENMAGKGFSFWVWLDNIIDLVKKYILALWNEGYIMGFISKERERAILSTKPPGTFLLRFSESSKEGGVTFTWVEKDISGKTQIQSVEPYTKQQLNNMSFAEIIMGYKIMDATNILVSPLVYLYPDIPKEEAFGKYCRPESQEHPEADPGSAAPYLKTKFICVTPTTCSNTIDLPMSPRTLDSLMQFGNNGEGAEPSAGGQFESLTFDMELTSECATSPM

HepG2 [17] = assay: Induction of apoptosis in human HepG2 cells assessed as downregulation of cyclin D1 protein expression by Western blotting analysis; assay type: functional, cell-based; details: dose 2.5-20 µM, DDE = dose-dependent effect
HepG2 [18] = assay: Antitumor activity against human HepG2 cells xenografted in BALB/c athymic nude mouse assessed as decrease in STAT3 phosphorylation at Y705 residues at 20 to 40 mg/kg, ip administered daily for 24 days; assay type: functional, organism-based; details: dose 20-40 mg/kg, time 24.0 day
ECa-109 cell line [19] = assay: Induction of cell cycle arrest in human EC109 cells assessed as downregulation of cyclin D1 protein expression by Western blotting analysis; assay type: functional, cell-based; details: dose 2.5-20 µM, DDE = dose-dependent effect
HepG2 [20] = assay: Induction of apoptosis in human HepG2 cells assessed as late apoptotic cells at 20 uM incubated for 48 hrs by Annexin V/PI staining based flow cytometry method (reference value: 3.64%); assay type: functional
ECa-109 cell line [21] = assay: Induction of apoptosis in human EC109 cells assessed as downregulation of cyclin D1 protein expression by Western blotting analysis; assay type: functional, cell-based; details: dose 2.5-20 µM, DDE = dose-dependent effect
HepG2 [22] = assay: Induction of apoptosis in human HepG2 cells assessed as necrotic cells at 10 uM incubated for 48 hrs by Annexin V/PI staining based flow cytometry method (reference value: 0.57%); assay type: functional
HepG2 [23] = assay: Induction of apoptosis in human HepG2 cells assessed as viable cells at 20 uM incubated for 48 hrs by Annexin V/PI staining based flow cytometry method (reference value: 92.5%); assay type: functional; details: read-out: Activity
HepG2 [24] = assay: Inhibition of cell migration in human HepG2 cells incubated for 48 hrs by microscopic analysis based wound healing assay; assay type: functional; details: dose 5-10 µM, DDE = dose-dependent effect
[25] = Inhibition of IL-6/JAK/STAT3 signalling pathway in HEK-blue IL-6 cells incubated for 16 hrs by SEAP reporter gene based QUANTI- blue assay; assay type: cell-based; details: Homo sapiens, HEK-Blue IL-6, 16 h
ECa-109 cell line [26] = assay: Induction of cell cycle arrest in human EC109 cells assessed as accumulation of cells at G0/G1 phase incubated for 24 hrs by flow cytometric analysis (reference value: 49.86%); assay type: functional
HepG2 [27] = assay: Induction of cell cycle arrest in human HepG2 cells assessed as decrease in cells at S phase incubated for 24 hrs by flow cytometric analysis (reference value: 23.01%); assay type: functional; design: scale not given: the % may be the effect or the level left
[28] = target: Signal transducer and activator of transcription 3 (Homo sapiens) (UniProt P40763); assay: Inhibition of IL-6 induced STAT3 phosphorylation at Tyr705 residue in human EC109 cells preincubated for 16 hrs followed by IL-6 stimulation for 30 mins by Western blot analysis; assay type: cell-based; details: dose 2.5-20 µM, DDE = dose-dependent effect
[29] = target: Signal transducer and activator of transcription 3 (Homo sapiens) (UniProt P40763); assay: Inhibition of IL-6 induced STAT3 phosphorylation at Tyr705 residue in human HepG2 cells preincubated for 16 hrs followed by IL-6 stimulation for 30 mins by Western blot analysis; assay type: cell-based; details: dose 2.5-20 µM, DDE = dose-dependent effect
ECa-109 cell line [30] = assay: Induction of apoptosis in human EC109 cells assessed as early apoptotic cells at 10 uM incubated for 48 hrs by Annexin V/PI staining based flow cytometry method (reference value: 1.36%); assay type: functional
HepG2 [31] = assay: Induction of apoptosis in human HepG2 cells assessed as early apoptotic cells at 20 uM incubated for 48 hrs by Annexin V/PI staining based flow cytometry method (reference value: 3.31%); assay type: functional
ECa-109 cell line [32] = assay: Inhibition of cell migration in human EC109 cells incubated for 48 hrs by microscopic analysis based wound healing assay; assay type: functional; details: dose 5-10 µM, DDE = dose-dependent effect
HepG2 [33] = assay: Antitumor activity against human HepG2 cells xenografted in BALB/c athymic nude mouse assessed as tumor growth inhibition at 20 mg/kg, ip administered daily for 24 days relative to control; assay type: functional; details: HepG2, 576 h, time 24 day, read-out: TGI
HepG2 [34] = assay: Induction of apoptosis in human HepG2 cells assessed as late apoptotic cells at 10 uM incubated for 48 hrs by Annexin V/PI staining based flow cytometry method (reference value: 3.64%); assay type: functional
HepG2 [35] = assay: Induction of cell cycle arrest in human HepG2 cells assessed as accumulation of cells at G0/G1 phase incubated for 24 hrs by flow cytometric analysis (reference value: 66.65%); assay type: functional
ECa-109 cell line [36] = assay: Induction of apoptosis in human EC109 cells assessed as necrotic cells at 20 uM incubated for 48 hrs by Annexin V/PI staining based flow cytometry method (reference value: 0.73%); assay type: functional

`CCCn1c(-c2cccc(OC)c2)nc2cc3nc(-c4cccc(OC)c4)n(CCC)c3cc21` showed an IC50 (ECa-109 cell line [1]) of 3.63 µM, an Activity (ECa-109 cell line [2]) of 2.27% and an Activity (ECa-109 cell line [3]) of 17.2%. For the same compound, the IC50 [4] was greater than 10 µM, the viability at 5 µM (ECa-109 cell line [5]) was 85.8% and the Activity (HepG2 [6]) was 19.7%. The Activity (ECa-109 cell line [7]) was “Dde”, the Activity (HepG2 [8]) was “Dde” and the Activity (ECa-109 cell line [9]) was 18.2%. For the same compound, the viability at 10 µM (HepG2 [10]) was 39.5%, the Activity (ECa-109 cell line [11]) was 11% and the Activity (HepG2 [12]) was 13.4%. The Activity (HepG2 [13]) was “Dde”, the Activity (HepG2 [14]) was 1.54% and the Activity [15] was “Non-Toxic”. The inhibition [16] was “Dde”, the Activity (HepG2 [17]) was “Dde” and the Activity (HepG2 [18]) was “Active”. For the same compound, the Activity (ECa-109 cell line [19]) was “Dde”, the Activity (HepG2 [20]) was 51.9% and the Activity (ECa-109 cell line [21]) was “Dde”. For the same compound, the Activity (HepG2 [22]) was 1.49%, the viability at 20 µM (HepG2 [23]) was 17.3% and the inhibition (HepG2 [24]) was “Dde”. The IC50 [25] was 2.61 µM, the Activity (ECa-109 cell line [26]) was 58.73% and the Activity (HepG2 [27]) was 16.55%. The inhibition [28] was “Dde”, the inhibition [29] was “Dde” and the Activity (ECa-109 cell line [30]) was 11.2%. For the same compound, the Activity (HepG2 [31]) was 29.9%, the inhibition (ECa-109 cell line [32]) was “Dde” and the inhibition in vivo at 20 mg/kg (HepG2 [33]) was 42.5%. It also gave an Activity (HepG2 [34]) of 39.4%, an Activity (HepG2 [35]) of 74.51% and an Activity (ECa-109 cell line [36]) of 3.56%.
